Some results are limits rather than exact numbers.

Data set [1] has as its system Sprague Dawley rats. Nature of the data set: Induction of penile erection by intravenous injection. Conditions: for Dose resulting in equivalent penile response by intravenous injection / Efficacious dose (penile erection in 100% of animals): rats; for Efficacious dose (penile erection in 100% of animals): intravenous injection.
Data set [2] relates to Sprague Dawley rats. As to the kind of experiment: Induction of penile erection by intranasal administration. Conditions: for % Rats with Penile Erection / Number of Erections/Rat/30 Minutes: intranasal. It is filed as in vivo, rat. How it is done: In another series of experiments, a dosing study was conducted in rats by nasal administration of from 15 μg per kg of body weight to 1500 μg per kg of body weight, using Nasal Formulation 1. Based on penile erectile response behavior, the peptide was efficacious at all dose amounts administered, and particularly from 25 μg/kg to 75 μg/kg, with pharacologic effect observed over the range from 15 μg/kg to 1500 μg/kg. […]

Data set [3] has as its system men with psychogenic erectile dysfunction. The following applies: subcutaneous, 0.025 to 0.157 mg/kg, cited from earlier work.
In data set [4] the test system is Female Long-Evans rats. As to the kind of experiment: Female sexual response, unilevel pacing chambers. It is filed as in vivo, rat. Conditions: 200 μg/kg subcutaneous. An excerpt:
Tests were videotaped and scored as in Example 13, with pacing defined as number of exits from and returns to the side with the male; and exist and return latencies following mounts, intromissions or ejaculations. FIGS. 8A, 8B, 8C and 8D show the results.

Data set [5] is described as follows: Pharmacokinetics in rats following IV administration. It is filed as in vivo, rat. Conditions: intravenous 100 μg/kg, bioassay.
A short description of data set [6]: PROFILE IN RATS INTRAVENOUSLY ADMINISTERED
The source says: Table printed on a drawing sheet, FIG. 1
Title: PROFILE IN RATS INTRAVENOUSLY ADMINISTERED
Section band inside the table: i.v.

The test system of a further data set is ferrets. Nature of the data set: Ferret emesis study. The class given is in vivo. Conditions: animals out of six. The source says: Ferrets are a recognized model for emetic studies. The vehicle for both intravenous and intranasal administration was saline. The positive control was cisplatin, known to induce vomiting in ferrets. The data is described as the number of animals out of a group of six showing signs of vomiting.

For data set [7], the system named is Sprague Dawley rats. As to the kind of experiment: Inhibition of Compound 1-induced penile erection by melanocortin antagonist. It is filed as in vivo, rat. The following applies: 25 or 50 μg/kg nasal in Nasal Formulation 1, control groups.
Data set [8] has as its system Female Long-Evans rats. As to the kind of experiment: Female sexual response, bilevel chambers. It is filed as in vivo, rat. Conditions: 200 μg/kg subcutaneous. How it is done:
Female Long-Evans rats (200-250 g) were house in groups of 2 to 4 depending on size in plastic cages in a colony room maintained on a reversed 12:12 hour light/dark cycle at approximately 21° C. with food and water ad libitum. The rats were ovariectomized bilaterally via lumbar incisions one week prior to preliminary tests of sexual behavior. Intact Long-Evans male rats served as stimulus males, and were sexual vigorous, initiating copulatory activity with females within 15 seconds of being placed into bilevel chambers containing female rats. Following preliminary tests of sexual behavior, females were administered subcutaneous injections of estradiol benzoate, 10 μg in 0.1 mL of sesame oil, forty-eight hours prior to testing, and progesterone, 500 μg in 0.1 mL of sesame oil, four hours prior to testing. Administration of estradiol benzoate and progesterone induced full sexual receptivity in the female rats. Female rats were placed in bilevel chambers five minutes prior to the introduction of a sexual vigorous male. […] Tests were videotaped and score subsequently for appetitive level changing during the five minute period prior to the introduction of the male, lordosis quotients and reflex magnitudes, incidents of solicitation (head-wise orientation and runaway), hops and darts, pacing (level changes per mount), female mounts and defensive responses. […]

The nature of data set [9]: Representative Profile in Monkeys Intravenously Delivered. An excerpt: Table printed on a drawing sheet, FIG. 2
Title: Representative Profile in Monkeys Intravenously Delivered

The nature of data set [10]: Profiles in Monkeys Intranasally Delivered. An excerpt:
Table printed on a drawing sheet, FIG. 3
Title: Profiles in Monkeys Intranasally Delivered
First reader's note: Columns 2001, 2002 and 2003 are individual monkeys, and the last two columns are their mean and SEM; the substance name is taken from the y-axis label, printed 'Compopund 1'.

As for Melanotan-II [reference compound], the “% Rats with Penile Erection” value in the data set on Sprague Dawley rats [1] (intravenous, 10.0 μg/kg) is recorded as 17%; with Sprague Dawley rats [1] (intravenous, 100.0 μg/kg), 75%; in the data set with Sprague Dawley rats [2] (100 μg/kg), 25%; in the data set with Sprague Dawley rats [2] (500 μg/kg) it was 100%. Besides, the “Number of Erections/Rat/30 Minutes” value came to 0.3 in the data set on Sprague Dawley rats [1] (intravenous, 10.0 μg/kg); 1.0 in the data set on Sprague Dawley rats [1] (intravenous, 100.0 μg/kg); 0.25 with Sprague Dawley rats [2] (100 μg/kg); 1.0 with Sprague Dawley rats [2] (500 μg/kg). Further, in the data set on Sprague Dawley rats [1] (rat model of penile erection), the “Optimal efficacious dose intravenously” value is 100 μg/kg of body weight. The “Dose resulting in equivalent penile response by intravenous injection” value with Sprague Dawley rats [1] is given as 100 μg/kg of body weight. Moreover, in the data set with Sprague Dawley rats [1], the “Efficacious dose (penile erection in 100% of animals)” value was at least 0.1 mg/kg. Also, in the data set with Sprague Dawley rats [2] (rats, 30 minute observation in ten-minute periods), the “Period of the penile erection response after nasal administration” value is 2nd and 3rd ten-minute period. For the same molecule, the “Treated men developing clinically apparent erections” value in [3] is given as 8 of 10. For the same molecule, the “Mean duration of tip rigidity greater than 80%” value in data set [3] (placebo 3.0 minutes) is 38 min.
For the molecule `CCCCC(NC(C)=O)C(=O)NC1CC(=O)NCCCCC(C(=O)O)NC(=O)C(Cc2c[nH]c3ccccc23)NC(=O)C(CCCNC(=N)N)NC(=O)C(Cc2ccccc2)NC(=O)C(Cc2c[nH]cn2)NC1=O` [Compound 1, Ac-Nle-cyclo(-Asp-His-D-Phe-Arg-Trp-Lys)-OH], the Ejaculation return latencies result with Female Long-Evans rats [4] is “increase”. The “Lordosis or defensive responding” value in the data set on Female Long-Evans rats [4] is on record as “no effect”. Besides, in the data set with Female Long-Evans rats [4], the “Number of exits or returns made by the females” value was “no significant effect”. Besides, the “Number of solicitations, hops and darts, and female mounts compared to controls” value in the data set on Female Long-Evans rats [4] (fully primed) was “increased the number of solicitations, hops and darts, and female mounts significantly”. Also, the “Pharmacokinetic profile in plasma” value in [5] is listed as “bi-phasic”. In [6], this molecule yielded a α-phase of 5 min. This molecule also showed a β-phase in data set [6] of 25 min. The “Signs of vomiting (proportions)” value in the data set with ferrets (10 μg/kg IV) was 0/6; in the data set with ferrets (30 μg/kg IV), 6/6; in the data set on ferrets (100 μg/kg IN) it was 0/6; with ferrets (100 μg/kg IV), 6/6; in the data set on ferrets (300 μg/kg IN) it was 1/6; with ferrets (500 μg/kg IN), 1/6. For the same molecule, the “Rats with observed erections, without pre-administration of SHU9119” value in the data set with Sprague Dawley rats [7] amounted to 100%. Moreover, the “% Rats with Penile Erection” value is listed as 50% with Sprague Dawley rats [1] (intravenous, 0.5 μg/kg); 100% in the data set on Sprague Dawley rats [1] (intravenous, 1.0 μg/kg); 100% in the data set on Sprague Dawley rats [1] (intravenous, 2.0 μg/kg); 100% in the data set with Sprague Dawley rats [1] (intravenous, 5.0 μg/kg); 100% with Sprague Dawley rats [1] (intravenous, 10.0 μg/kg); 50% in the data set with Sprague Dawley rats [2] (15 μg/kg). Further, the “% Rats with Penile Erection” value with Sprague Dawley rats [2] (25 μg/kg), in the data set on Sprague Dawley rats [2] (37 μg/kg), with Sprague Dawley rats [2] (50 μg/kg), in the data set with Sprague Dawley rats [2] (75 μg/kg), in the data set on Sprague Dawley rats [2] (500 μg/kg) and with Sprague Dawley rats [2] (1000 μg/kg) was 100% each time. For the same molecule, the “% Rats with Penile Erection” value in the data set on Sprague Dawley rats [2] (1500 μg/kg) is 50%. The “Number of Erections/Rat/30 Minutes” value in the data set with Sprague Dawley rats [1] (intravenous, 0.5 μg/kg) is 0.5; in the data set with Sprague Dawley rats [1] (intravenous, 1.0 μg/kg), 1.0; in the data set on Sprague Dawley rats [1] (intravenous, 2.0 μg/kg), 2.0; with Sprague Dawley rats [1] (intravenous, 5.0 μg/kg) it was 1.8; in the data set on Sprague Dawley rats [1] (intravenous, 10.0 μg/kg) it was 2.5; in the data set on Sprague Dawley rats [2] (15 μg/kg), 0.5. Besides, the “Number of Erections/Rat/30 Minutes” value is listed as 2.0 in the data set on Sprague Dawley rats [2] (25 μg/kg); 2.0 in the data set on Sprague Dawley rats [2] (37 μg/kg); 2.0 in the data set on Sprague Dawley rats [2] (50 μg/kg); 2.5 in the data set with Sprague Dawley rats [2] (75 μg/kg); 1.5 with Sprague Dawley rats [2] (500 μg/kg); 1.5 with Sprague Dawley rats [2] (1000 μg/kg). Also, the “Number of Erections/Rat/30 Minutes” value in the data set on Sprague Dawley rats [2] (1500 μg/kg) came out at 0.5. For the same molecule, the “Rats having multiple erections” value in the data set with Sprague Dawley rats [1] (intravenous, 2 μg/kg, 30 minutes observation period) is listed as “approximately 50%”. The “Dose resulting in equivalent penile response by intravenous injection” value with Sprague Dawley rats [1] is reported as 2 μg/kg of body weight. Besides, the “Efficacious dose (penile erection in 100% of animals)” value in the data set with Sprague Dawley rats [1] was 0.001 mg/kg. For the same molecule, the “Rates of appetitive level changing, pacing, lordosis, female mounts or rejection responses” value with Female Long-Evans rats [8] is given as “without affecting”. Further, the Number of solicitations entry in the data set on Female Long-Evans rats [8] (fully and partially primed female rats) was “increased the number of solicitations significantly”.
A word on the AUC: it is the area under the concentration-time curve, a measure of exposure. Read a low AUC as low exposure. What is called Cmax is the peak of the concentration-time curve. Broadly, the Tmax is the time from dosing to the highest level. `CCCC[C@H](NC(C)=O)C(=O)N[C@H]1CC(=O)NCCCC[C@@H](C(=O)O)NC(=O)[C@H](Cc2c[nH]c3ccccc23)NC(=O)[C@H](CCCNC(=N)N)NC(=O)[C@@H](Cc2ccccc2)NC(=O)[C@H](Cc2c[nH]cn2)NC1=O` [Compopund 1]: in data set [9], the exposure (AUC) turned out to be 3730.0 ng·min/mL, the “Cmax” value was 1149.0 ng/mL and the “Tmax” value is 0 h. In addition, in data set [10], the “%Bioavailability” value is given as 0.73%, the “AUC” value turned out to be 27.16 ng·min/mL, the “Cmax” value amounted to 0.38 ng/mL and the “Tmax” value amounted to 50.00 min.

The values above are taken from patent publication US6794489B2, “Compositions and methods for treatment of sexual dysfunction” (Palatin Technologies, Inc., priority 1999, dated 2004).
